US7109193B2, “Tricyclic diazepines tocolytic oxytocin receptor antagonists” (Wyeth, priority 2001, dated 2006)

Target: T1, human oxytocin receptor (Homo sapiens, UniProt P30559)
T1 construct: host or cells: CHO cells (pcDNA3.1 vector)
T1 sequence (P30559 1-389): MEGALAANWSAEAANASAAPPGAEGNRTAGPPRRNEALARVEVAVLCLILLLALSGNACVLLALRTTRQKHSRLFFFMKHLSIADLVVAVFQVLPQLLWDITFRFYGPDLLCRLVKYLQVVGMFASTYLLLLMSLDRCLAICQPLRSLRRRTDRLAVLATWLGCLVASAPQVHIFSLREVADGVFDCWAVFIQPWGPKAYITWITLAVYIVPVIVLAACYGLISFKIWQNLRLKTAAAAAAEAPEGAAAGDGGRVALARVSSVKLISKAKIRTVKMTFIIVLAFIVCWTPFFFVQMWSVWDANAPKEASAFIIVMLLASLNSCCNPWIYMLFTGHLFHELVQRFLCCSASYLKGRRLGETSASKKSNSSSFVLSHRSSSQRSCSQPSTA
Experiment: Oxytocin binding in Chinese Hamster Ovary cell membranes expressing human oxytocin receptors
Settings: 100 nM, CHO cell membranes, [3H]oxytocin, values without parentheses, read-out: OT % inhibition @ 100% nM

SMILES | inhibition at 0.1 µM [%]
O=C(c1ccc2n1Cc1ccccc1N(C(=O)c1ccc(-c3cccc4ccccc34)cc1Cl)C2)N1CCN(CCN2CCOCC2)CC1 [Example 215, {10-[2-Chloro-4-(1-naphthyl)benzoyl]-10,11-dihydro-5H-pyrrolo[2,1-c][1,4]benzodiazepin-3-yl}{4-[2-(4-morpholinyl)ethyl]-1-piperazinyl}methanone] | 26
COc1cc(C(=O)N2Cc3ccc(C(=O)N4CCN(CCN5CCOCC5)CC4)n3Cc3ccccc32)ccc1-c1ccccc1C [Example 210, {10-[(2-Methoxy-2′-methyl[1,1′-biphenyl]-4-yl)carbonyl]-10,11-dihydro-5H-pyrrolo[2,1-c][1,4]benzodiazepin-3-yl}{4-[2-(4-morpholinyl)ethyl]-1-piperazinyl}methanone] | 82
Cc1ccccc1-c1ccc(C(=O)N2Cc3ccc(C(=O)N(C)C4CCN(C)CC4)n3Cc3ccccc32)cc1 [Example 178, N-Methyl-10-[(2′-methyl[1,1′-biphenyl]-4-yl)carbonyl]-N-(1-methyl-4-piperidinyl)-10,11-dihydro-5H-pyrrolo[2,1-c][1,4]benzodiazepine-3-carboxamide] | 93
COc1cccc(-c2cc(OC)c(C(=O)N3Cc4ccc(C(=O)N5CCN(CCN(C)C)CC5)n4Cc4ccccc43)cc2Cl)c1 [Example 202, {10-[(6-Chloro-3,3′-dimethoxy[1,1′-biphenyl]-4-yl)carbonyl]-10,11-dihydro-5H-pyrrolo[2,1-c][1,4]benzodiazepin-3-yl}{4-[2-(dimethylamino)ethyl]-1-piperazinyl}methanone] | 73
Cc1cc(C(=O)N2Cc3ccc(C(=O)N(C)C4CCN(C)CC4)n3Cc3ccccc32)ccc1-c1ccccc1C(F)(F)F [Example 184, N-Methyl-N-(1-methyl-4-piperidinyl)-10-{[2-methyl-2′-(trifluoromethyl)[1,1′-biphenyl]-4-yl]carbonyl}-10,11-dihydro-5H-pyrrolo[2,1-c][1,4]benzodiazepine-3-carboxamide] | 83
COc1cccc(-c2ccc(C(=O)N3Cc4ccc(C(=O)NCCC5CCCN5C)n4Cc4ccccc43)cc2OC)c1 (stereo not drawn) [Example 172, 10-[(2,3′-Dimethoxy[1,1′-biphenyl]-4-yl)carbonyl]-N-[2-(1-methyl-2-pyrrolidinyl)ethyl]-10,11-dihydro-5H-pyrrolo[2,1-c][1,4]benzodiazepine-3-carboxamide] | 47
COc1cccc(-c2cc(OC)c(C(=O)N3Cc4ccc(C(=O)N(C)C5CCN(C)C5)n4Cc4ccccc43)cc2Cl)c1 (stereo not drawn) [Example 191, 10-[(6-Chloro-3,3′-dimethoxy[1,1′-biphenyl]-4-yl)carbonyl]-N-methyl-N-(1-methyl-3-pyrrolidinyl)-10,11-dihydro-5H-pyrrolo[2,1-c][1,4]benzodiazepine-3-carboxamide] | 100
COc1ccccc1-c1ccc(C(=O)N2Cc3ccc(C(=O)N(C)C4CCN(C)C4)n3Cc3ccccc32)cc1OC (stereo not drawn) [Example 193, 10-[(2,2′-Dimethoxy[1,1′-biphenyl]-4-yl)carbonyl]-N-methyl-N-(1-methyl-3-pyrrolidinyl)-10,11-dihydro-5H-pyrrolo[2,1-c][1,4]benzodiazepine-3-carboxamide] | 96
COc1ccccc1-c1ccc(C(=O)N2Cc3ccc(C(=O)N(C)C4CCN(C)CC4)n3Cc3ccccc32)cc1OC [Example 183, 10-[(2,2′-Dimethoxy[1,1′-biphenyl]-4-yl)carbonyl]-N-methyl-N-(1-methyl-4-piperidinyl)-10,11-dihydro-5H-pyrrolo[2,1-c][1,4]benzodiazepine-3-carboxamide] | 97
O=C(NCCN1CCCCC1)c1ccc2n1Cc1ccccc1N(C(=O)c1ccc(-c3cccc4ccccc34)cc1Cl)C2 [Example 160, 10-[2-Chloro-4-(1-naphthyl)benzoyl]-N-[2-(1-piperidinyl)ethyl]-10,11-dihydro-5H-pyrrolo[2,1-c][1,4]benzodiazepine-3-carboxamide] | 20
Cc1ccccc1-c1ccc(C(=O)N2Cc3ccc(C(=O)N(C)C4CCN(C)C4)n3Cc3ccccc32)cc1 (stereo not drawn) [Example 188, N-Methyl-10-[(2′-methyl[1,1′-biphenyl]-4-yl)carbonyl]-N-(1-methyl-3-pyrrolidinyl)-10,11-dihydro-5H-pyrrolo[2,1-c][1,4]benzodiazepine-3-carboxamide] | 96
COc1cc(-c2ccccc2C)c(Cl)cc1C(=O)N1Cc2ccc(C(=O)N(C)C3CCN(C)C3)n2Cc2ccccc21 (stereo not drawn) [Example 190, 10-[(6-Chloro-3-methoxy-2′-methyl[1,1′-biphenyl]-4-yl)carbonyl]-N-methyl-N-(1-methyl-3-pyrrolidinyl)-10,11-dihydro-5H-pyrrolo[2,1-c][1,4]benzodiazepine-3-carboxamide] | 99
COc1cccc(-c2ccc(C(=O)N3Cc4ccc(C(=O)NCCN5CCCCC5)n4Cc4ccccc43)cc2OC)c1 [Example 159, 10-[(2,3′-Dimethoxy[1,1′-biphenyl]-4-yl)carbonyl]-N-[2-(1-piperidinyl)ethyl]-10,11-dihydro-5H-pyrrolo[2,1-c][1,4]benzodiazepine-3-carboxamide] | 50
Cc1ccccc1-c1ccc(C(=O)N2Cc3ccc(C(=O)N4CCN(CCN5CCOCC5)CC4)n3Cc3ccccc32)cc1C [Example 218, {10-[(2,2′-Dimethyl[1,1′-biphenyl]-4-yl)carbonyl]-10,11-dihydro-5H-pyrrolo[2,1-c][1,4]benzodiazepin-3-yl}{4-[2-(4-morpholinyl)ethyl]-1-piperazinyl}methanone] | 98
COc1cc(C(=O)N2Cc3ccc(C(=O)N(C)C4CCN(C)C4)n3Cc3ccccc32)ccc1-c1ccccc1C (stereo not drawn) [Example 189, 10-[(2-Methoxy-2′-methyl[1,1′-biphenyl]-4-yl)carbonyl]-N-methyl-N-(1-methyl-3-pyrrolidinyl)-10,11-dihydro-5H-pyrrolo[2,1-c][1,4]benzodiazepine-3-carboxamide] | 99

Further lines, results first:

inhibition at 0.1 µM [%] | SMILES
63 | C=CCN1CCN(C(=O)c2ccc3n2Cc2ccccc2N(C(=O)c2ccc(-c4cccc5ccccc45)c(OC)c2)C3)CC1 [Example 231, (4-Allyl-1-piperazinyl){10-[3-methoxy-4-(1-naphthyl)benzoyl]-10,11-dihydro-5H -pyrrolo[2,1-c][1,4]benzodiazepin-3-yl}methanone]
79 | COc1cc(-c2ccccc2C)c(Cl)cc1C(=O)N1Cc2ccc(C(=O)N3CCN(C(C)C)CC3)n2Cc2ccccc21 [Example 238, {10-[(6-Chloro-3-methoxy-2′-methyl[1,1′-biphenyl]-4-yl)carbonyl]-10,11-dihydro-5H -pyrrolo[2,1-c][1,4]benzodiazepin-3-yl}(4-isopropyl-1-piperazinyl)methanone]
69 | C=CCN1CCN(C(=O)c2ccc3n2Cc2ccccc2N(C(=O)c2ccc(-c4ccccc4OC)c(OC)c2)C3)CC1 [Example 227, (4-Allyl-1-piperazinyl){10-[(2,2′-dimethoxy[1,1′-biphenyl]-4-yl)carbonyl]-10,11-dihydro-5H -pyrrolo[2,1-c][1,4]benzodiazepin-3-yl}methanone]
62 | Cc1cc(C(=O)N2Cc3ccc(C(=O)N4CCN(C(C)C)CC4)n3Cc3ccccc32)ccc1-c1ccccc1C(F)(F)F [Example 240, (4-Isopropyl-1-piperazinyl)(10-{[2-methyl-2′-(trifluoromethyl)[1,1′-biphenyl]-4-yl]carbonyl}-10,11-dihydro-5H-pyrrolo[2,1-c][1,4]benzodiazepin-3-yl)methanone]
84 | C=CCN1CCN(C(=O)c2ccc3n2Cc2ccccc2N(C(=O)c2ccc(-c4ccccc4OC)c(C)c2)C3)CC1 [Example 222, (4-Allyl-1-piperazinyl){10-[(2′-methoxy-2-methyl[1,1′-biphenyl]-4-yl)carbonyl]-10,11-dihydro-5H-pyrrolo[2,1-c][1,4]benzodiazepin-3-yl}methanone]
82 | COc1ccccc1-c1ccc(C(=O)N2Cc3ccc(C(=O)N4CCN(C(C)C)CC4)n3Cc3ccccc32)cc1 [Example 234, (4-Isopropyl-1-piperazinyl){10-[(2′-methoxy[1,1′-biphenyl]-4-yl)carbonyl]-10,11-dihydro-5H-pyrrolo[2,1-c][1,4]benzodiazepin-3-yl}methanone]
19 | C=CCN1CCN(C(=O)c2ccc3n2Cc2ccccc2N(C(=O)c2ccc(-c4cccc5ccccc45)cc2Cl)C3)CC1 [Example 229, (4-Allyl-1-piperazinyl){10-[2-chloro-4-(1-naphthyl)benzoyl]-10,11-dihydro-5H-pyrrolo[2,1-c][1,4]benzodiazepin-3-yl}methanone]
46 | COc1cc(C(=O)N2Cc3ccc(C(=O)N4CCN(C(C)C)CC4)n3Cc3ccccc32)ccc1-c1cccc2ccccc12 [Example 236, (4-Isopropyl-1-piperazinyl){10-[3-methoxy-4-(1-naphthyl)benzoyl]-10,11-dihydro-5H -pyrrolo[2,1-c][1,4]benzodiazepin-3-yl}methanone]
71 | C=CCN1CCN(C(=O)c2ccc3n2Cc2ccccc2N(C(=O)c2ccc(-c4cccc(OC)c4)c(C)c2)C3)CC1 [Example 223, (4-Allyl-1-piperazinyl){10-[(3′-methoxy-2-methyl[1,1′-biphenyl]-4-yl)carbonyl]-10,11-dihydro-5H-pyrrolo[2,1-c][1,4]benzodiazepin-3-yl}methanone]
